Common to all, as to test: Laboratory disinfection efficacy test (suspension, pour plate count)
Holding throughout (format): cell-based

Experiment [1] deals with Staphylococcus aureus strain ATCC 6538. Particulars: 15 seconds (ethanol trials) or 1 minute to 30 minutes. The procedure: (§1) The inoculum level for each of the test microorganisms were established in a similar manner. Test strains were grown individually at 35° C. for 24 hr. The cells were harvested by centrifugation at 10,000×g for 10 minutes and washed twice with Butterfield's Phosphate Buffer (BPB of pH 7.2). The cells were resuspended in the Butterfield's Phosphate Buffer to obtain a cell suspension of approximately 1.0×10^8 CFU/mL for each microorganism (target inoculum levels were approx. 10^6 in the final test solution).
(§2) The test microorganisms considered were tested at uniform sampling intervals, The sampling intervals selected were (a) 15 seconds (ethanol trials only), (b) 1 minute, (c) 5 minutes, (d) 10 minutes and (e) 30 minutes.
(§3) Five compounds were tested against the test microorganisms.
(§4) The test microorganisms were tested in accordance with the following test procedures. Duplicate trials were conducted for each test variable. Ninety nine volumes of the test solutions in 250 mL Erlenmeyer flasks were prepared from sterilized deionized water. The solutions were inoculated separately with one mL of 24 hour culture from each of the test strains to yield a flask inoculum level of approximately 1.0×10^6 CFU/mL.
(§5) Solutions were mixed well and kept under constant agitation. Samples of 1.0 mL were removed at the above specified time intervals and placed into 9.0 mL Neutralization Broth media (Difco) to yield an initial dilution of 1:10. All samples were serially diluted in the Butterfield's Phosphate Buffer solution (BPB) and plated onto Tryptic Soy Agar (TSA) in duplicate using the pour plate technique. Percent reductions were calculated for each test solution against each test strain.
(§6) For all tests which utilized either copper or silver ions, concentrated solutions were prepared 24 hours prior to the beginning of the study. Solutions were filtered and determinations for ion content were made. From these stock solutions (copper ion concentration as measured by ICAP and silver ion concentration as measured by Atomic Absorption analysis), final working solutions were made. The target ion concentration for both copper and silver was 5.0 mg/L.

Experiment [2] concerns Salmonella cholerasuis strain ATCC 10708. The procedure:
as §1, §2, §3, §4, §5, §6

In experiment [3] the test system is pseudomonas aeruginosa strain ATCC 15442. The following applies: 15 seconds (ethanol trials) or 1 minute to 30 minutes. The procedure:
as §1, §2, §3, §4, §5, §6

Turning to `CCO` [20% ethanol, ethanol], the “disinfection effectiveness” value in experiment [1] is recorded as “No significant reduction”; in experiment [2] (all time periods up to 30 minutes), “slow, but complete disinfection”; in experiment [3], “no significant reduction”. Further, the log10 reduction in experiment [2] (1 minute contact) is recorded as approximately 1.0 log10. For the same compound, the “disinfection” value in experiment [2] (after 30 minutes of contact time) is “Near complete disinfection”.

As to `O=C(O)CC(O)(CC(=O)O)C(=O)O` [citric acid], the “disinfection effectiveness” value in experiment [1] is recorded as “Neither citric acid nor copper:citric acid was effective”; in experiment [3] it was “no significant reduction”. Further, in experiment [2] (30 minute time period), the log10 reduction came out at 1.0 log10.

Values taken from patent publication US7803407B2 (priority 1997, dated 2010).
